What was measured:
[1] = target: T1, ERG protein (Homo sapiens, UniProt P11308); details: PCT US2015/020172; cited from earlier work
T1 sequence (P11308 1-479): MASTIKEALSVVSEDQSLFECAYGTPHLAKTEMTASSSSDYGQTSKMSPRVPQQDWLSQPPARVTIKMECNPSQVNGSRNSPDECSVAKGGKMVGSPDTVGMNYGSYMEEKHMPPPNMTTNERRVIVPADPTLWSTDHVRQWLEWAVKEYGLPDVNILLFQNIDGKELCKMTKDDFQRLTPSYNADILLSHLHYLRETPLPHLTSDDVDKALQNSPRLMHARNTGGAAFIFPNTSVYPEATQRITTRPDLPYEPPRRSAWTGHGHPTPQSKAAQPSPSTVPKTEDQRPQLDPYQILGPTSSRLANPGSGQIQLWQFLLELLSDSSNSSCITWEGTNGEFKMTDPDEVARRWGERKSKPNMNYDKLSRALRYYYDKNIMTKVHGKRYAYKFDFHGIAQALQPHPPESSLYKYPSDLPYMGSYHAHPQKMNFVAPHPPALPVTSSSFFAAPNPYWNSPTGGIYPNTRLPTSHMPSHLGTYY

[2] = system: normal primary endothelial cells; details: PCT US2015/020172; cited from earlier work
[3] = target: T2, ERG protein (Homo sapiens, UniProt P11308); test: Inhibition of ERG protein in VCaP cells (Western blot); assay type: cell-based; details: VCaP, metastatic prostate cancer, TMPRSS2-ERG fusion; N/D = assay performed, inhibition not detected at the tested levels
T2 construct: host or cells: VCaP
T2 sequence (P11308 33-479 limits assumed): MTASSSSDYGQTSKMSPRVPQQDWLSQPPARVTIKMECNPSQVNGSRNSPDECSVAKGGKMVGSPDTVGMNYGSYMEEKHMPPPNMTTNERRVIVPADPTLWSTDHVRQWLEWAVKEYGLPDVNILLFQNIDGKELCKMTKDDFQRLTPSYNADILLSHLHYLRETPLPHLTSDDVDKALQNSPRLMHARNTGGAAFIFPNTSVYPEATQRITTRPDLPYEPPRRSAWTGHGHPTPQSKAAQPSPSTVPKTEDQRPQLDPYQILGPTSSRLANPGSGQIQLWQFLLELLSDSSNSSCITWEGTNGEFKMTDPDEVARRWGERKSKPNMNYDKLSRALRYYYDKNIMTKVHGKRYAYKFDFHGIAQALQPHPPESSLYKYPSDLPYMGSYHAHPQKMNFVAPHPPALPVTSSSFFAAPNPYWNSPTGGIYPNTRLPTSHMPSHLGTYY
Procedure: The TMPRSS2-ERG fusion positive prostate cancer cell line, VCaP (ATCC), was used to identify the test compound inhibitors of ERG expression. Cells were grown in medium using conditions prescribed by the vendor. VCaP cells in logarithmic growth were seeded in a tissue culture dish at a cell density of 2×10^6 cells per plate. Following 48 hours incubation at 37° C., cells were exposed for a period of 48 hours with 0, 0.05, 0.25 and 0.5 μM concentrations of each test azophenol compound. The inhibition of ERG expression was evaluated by an In-cell Western blot assay (LI-COR Biosciences, Lincoln, Nebr.) using the ERG specific CPDR ERG-MAb as further described below.
Inhibition of ERG protein expression by the test compounds were determined by Western blot analysis. The ERG specific monoclonal antibody CPDR ERG-MAb was used as the primary antibody. In brief, Western blot was performed by running a fixed amount of total protein extracted from cell lysates of the treated cells using (4-12% Bis-Tris) gel by electrophoresis, followed by transfer to membrane and incubation with primary antibody and continued with HRP-conjugated secondary antibody. Cultured cells were treated at specific dosages with each of the tested ERG inhibitors. Following incubation of the treated cells for an indicated time period, cells were lysed using Mammalian Protein Extraction Reagent (M-PER; Pierce, Rockford, Ill.) containing a protease inhibitor cocktail and phosphatase inhibitor cocktails I & III (Sigma, St Louis, Mo.). Cell lysates containing 50 μg of total protein were electrophoresed through 4-12% Bis-Tris Gel (Invitrogen, Carlsbad, Calif.) and the cellular proteins were transferred to PVDF membrane (Invitrogen, Carlsbad, Calif.). Membranes were incubated at 4° C. for 12 hours with primary antibodies for AR, PSA, GAPDH, α-Tubulin, apoptosis markers and cell cycle regulators. Following exposure to primary antibodies, the membranes were washed with buffer (3×, 5 minutes each at room temperature) followed by incubation with relevant secondary antibodies for 1 hour at 24° C. Finally, the membranes were washed with buffer and developed using the ECL Western blot detection reagent (GE Health Care, Buckinghamshire, UK). The ERG protein expression of the test azophenol compounds were normalized with GAPDH.
In brief, ERG positive VCaP cells in loganthmic growth phase were plated in 10 cm tissue culture dish at a cell density of 2×10^6 cells per dish. The plated cells were treated with 0, 0.2, 0.4, 0.6, 0.8 and 1 μM concentrations of each azophenol compound for a period of 48 hours. Cells from each dish were then processed for Western blot analysis and alterations in the expression of ERG protein were monitored. Both ERG and GAPDH protein band were quantified from each concentration using Image J (NIH) and ERG band density was normalized with corresponding GAPDH protein control. Relative density of ERG in each concentration was calculated and with Graphpad Prism 6 software, the IC50 of each compound was calculated.

[4] = system: VCaP cells; test: VCaP cell growth inhibition; assay type: cell-based
Procedure: Approximately 48 hours following plating of cells, the appropriate test compound is added to each well of the tissue culture dish at a predetermined concentration. The medium was replenished every 24 hours with fresh growth medium containing the same concentration of the same test compound for indicated period of the cell growth inhibition assay. Percent cell growth inhibition was calculated using a hemocytometer for estimating cell density in each of the test wells of the tissue culture dish and trypan blue dye exclusion microscopy and photography to estimate the fraction of viable cells in each test well.
To investigate whether the azophenol compounds selectively arrested the growth of ERG positive cancer cells (VCaP), VCaP cells were cultured to achieve cells in logarithmic growth and these cells were then plated in 6 well tissue culture dishes in duplicates at a cell density of 0.2×10^6 cells per well. The plated cells were exposed to 0, 0.2, 0.4, 0.6, 0.8 and 1 μM concentrations of each compound for a period of 8 days. At the end of time period, cells were recovered from the test plate, washed, trypsinized and the cell density of viable cells were determined with trypan blue dye staining method and automated cell counter Bio-Rad TC10. The IC50 of cell growth inhibition of each compound was determined by trypsinizing the cells at the end of the experiment and counting the cells by using the automated cell counter (Bio-Rad TC10 automated cell counter). The average cell numbers of each concentration were used to calculate the IC50 of each compound with the GraphPad Prism 6 software.

| Structure (SMILES) | inhibition of ERG protein in ERG positive cancer cell lines [1] | effect on normal primary endothelial cells that endogenously express ERG [2] | IC50 [3] [nM] | inhibition of VCaP cell growth ([4]; 0.3, 0.6, 1.0, 3.0 and 10.0 μM, FIG. 25-30) | IC50 ([4]; VCaP, metastatic prostate cancer, TMPRSS2-ERG fusion, N/D = assay performed, inhibition not detected at the tested levels) [nM] |
| --- | --- | --- | --- | --- | --- |
| Oc1ccc2ccccc2c1N=Nc1nccs1 [ERGi-USU] | inhibit the ERG protein | minimal effect | – | – | – |
| Cc1cc(N=Nc2nccs2)c(O)cc1O [Compound 3] | – | – | 1350 | inhibition | 4070 |

Source: patent US11648239B2, “Azophenols as ERG oncogene inhibitors” (The Henry M. Jackson Foundation for the Advancement of …, priority 2015, dated 2023)
